The compounds below were run against Mcl-1 (Homo sapiens (Human), UniProt Q07820) (assay: Fluorescence polarization competition assay (FPCA), Mcl-1 / FITC-Bak BH3 peptide). Details: FPC assay; read-out: Mcl-1 Ki.
Mcl-1, sequence (Q07820 172-327): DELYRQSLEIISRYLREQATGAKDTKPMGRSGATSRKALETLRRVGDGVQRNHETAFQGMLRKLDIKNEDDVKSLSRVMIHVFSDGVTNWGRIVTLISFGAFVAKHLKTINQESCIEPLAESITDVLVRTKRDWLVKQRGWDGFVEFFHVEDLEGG
Assay type: binding
Excerpt: The tagged protein was initially purified from the crude cell lysate by immobilized metal affinity chromatography (IMAC) chromatography (GE Healthcare Life Sciences), and after dialysis to remove the imidazole the affinity tag was cleaved using PreScission Protease (GE Healthcare Life Sciences). A Sephacryl S-200 size exclusion column was used as a final purification step before the protein was concentrated with a 10,000 MWCO centifugal filter concentrator (Millipore).
Fluorescence polarization experiments were conducted using a BMG PHERAstar FS multimode microplate reader equipped with two PMTs for simultaneous measurements of the perpendicular and parallel fluorescence emission. The assays were performed in black polypropylene 384-well microplate (Costar) with a final volume of 20 microliter. […] Regression analysis was carried out using Origin (OriginLab, Northampton, Mass.) to fit the data to the Hill equation (1) to determine the initial binding affinity (KD) and the IC50 in the FPCA. For the fluorescence polarization competition titrations, an equation derived by Nikolovska-Coleska et al. was used to calculate the Ki from the IC50 data.
The target molecules were assayed for their abilities to disrupt the Mcl-1-Bak-BH3 PPI in a fluorescence polarization competition (FPC) assay with Mcl-1 and FITC-labeled Bak-BH3 peptide. Further details on the FPC assay can be found in the Supporting Information.
`O=C(O)C1Cc2ccccc2N(S(=O)(=O)c2ccccc2)C1` (racemic) [±-8a] showed a Ki of 193 µM.
`O=C(O)C1Cc2ccccc2N(S(=O)(=O)c2ccc(-c3ccccc3)cc2)C1` (racemic) [±-8d] was tested, and the Ki was greater than 500 µM.

Same assay, conditions: FPCA
For `COC(=O)C1Cc2ccccc2N(S(=O)(=O)c2ccc(Oc3cc(C)c(Cl)c(C)c3)cc2)C1` (racemic) [±-9], the “Binding affinity to Mcl-1 in vitro” value was “no appreciable affinity”.

Same assay, conditions: FPCA with FITC-Bak; Ki from IC50 by Nikolovska-Coleska equation; listed as 8c; read-out: Mcl-1 Ki
Compound `CC(C)CN(c1ccc(C(=O)O)cc1)S(=O)(=O)c1ccc(-c2ccccc2)cc1` [LC-3-030 8c] has a Ki of 16.7 µM.

Same assay, conditions: FPCA with FITC-Bak; Ki from IC50 by Nikolovska-Coleska equation; read-out: Mcl-1 Ki
With `CC(C)CN(c1ccc(Br)cc1)S(=O)(=O)c1cc(C(=O)O)c(O)c2ccccc12` [Compound 3ca, 4-(N-(4-Bromophenyl)-N-isobutylsulfamoyl)-1-hydroxy-2-naphthoic Acid] the Ki was 0.566 µM.
`N#Cc1cccc(NS(=O)(=O)c2cc(C(=O)O)c(O)c3ccccc23)c1` [Compound 3ad, 4-(N-(3-Cyanophenyl)sulfamoyl)-1-hydroxy-2-naphthoic Acid] was tested, and the Ki was 26.9 ± 0.6 µM.
Work on `O=C(O)c1ccc2c(c1)CCCN2S(=O)(=O)c1ccc(-c2ccccc2)cc1` [LC-3-002, 1-([1,1′-biphenyl]-4-ylsulfonyl)-1,2,3,4-tetrahydroquinoline-6-carboxylic acid] yielded a Ki of 14 µM.
For `O=C(O)c1ccc(N(Cc2ccccc2)S(=O)(=O)c2ccc(-c3ccccc3)cc2)cc1O` [LC-4-112 13cb], the Ki was 1.71 ± 0.144 µM.
`O=C(O)c1cc(S(=O)(=O)N2CCN(c3ccccc3)CC2)c2ccccc2c1O` [Compound 3j, 1-Hydroxy-4-((4-phenylpiperazin-1-yl)sulfonyl)-2-naphthoic Acid] showed a Ki of 4.54 ± 3.86 µM.
In the case of `O=C(O)C1Cc2ccccc2N(S(=O)(=O)c2ccc(F)cc2)C1` (racemic) [±-8c], the Ki is reported as 176 ± 115 µM.
In the case of `Cc1cc(C)cc(Oc2ccc(S(=O)(=O)N(CC(C)C)c3ccc(C(=O)O)c(O)c3)cc2)c1` [LC-4-100 13ai], the Ki is reported as 2.96 ± 0.286 µM.
With `O=C(O)c1ccc(N(C2CCCC2)S(=O)(=O)c2ccc3ccccc3c2)cc1O` [LC-4-083 13ba] the Ki was 24.7 ± 9.45 µM.
For `CC(C)CN(c1ccc(C(=O)Oc2ccccc2)c(O)c1)S(=O)(=O)c1ccc(Oc2ccccc2)cc1` [LC-4-134 21], the Ki was greater than 500 µM.
In the case of `CC(C)CN(c1cccc(C(=O)O)c1)S(=O)(=O)c1ccc(F)cc1` [4jc177-6 18ad], the Ki is reported as greater than 500 µM.
For `O=C(O)c1cc(S(=O)(=O)NCc2ccccc2)c2ccccc2c1O` [Compound 3c, 4-(N-Benzylsulfamoyl)-1-hydroxy-2-naphthoic Acid], the Ki was 56.3 ± 2.1 µM.
For `CC(C)CN(c1ccc(C(=O)O)cc1)S(=O)(=O)c1ccc(-c2ccccc2)cc1` [LC-3-030 8c], the Ki was 16.7 ± 2.28 µM.
In the case of `O=C(O)c1cc(S(=O)(=O)Nc2ccccc2)c2ccccc2c1O` [Compound 3l, 1-Hydroxy-4-(N-phenylsulfamoyl)-2-naphthoic acid], the Ki is reported as 106 ± 26 µM.
Work on `CC(C)CN(c1ccc(C(=O)O)cc1)S(=O)(=O)c1ccccc1` [LC-3-029 8a] yielded a Ki greater than 500 µM.
`CC(C)CN(c1ccc(C(=O)O)cc1)S(=O)(=O)c1ccc2ccccc2c1` [LC-3-031 8b] gave a Ki greater than 500 µM.
`O=C(O)c1cc(S(=O)(=O)N2CCCCC2)c2ccccc2c1O` [Compound 3i, 1-Hydroxy-4-(piperidin-1-ylsulfonyl)-2-naphthoic Acid] showed a Ki of 2.95 ± 0.43 µM.
For `O=C(O)C1Cc2ccccc2N(S(=O)(=O)c2ccc3ccccc3c2)C1` (racemic) [±-8e], the Ki was 59 ± 6 µM.
`Cc1ccc(S(=O)(=O)N(CC(C)C)c2ccc(C(=O)O)c(O)c2)cc1` [4jc117-2 13af] showed a Ki of 61.2 ± 4.49 µM.
Work on `O=C(O)C1Cc2ccccc2N(S(=O)(=O)c2ccccc2)C1` (racemic) [±-8a] yielded a Ki of 193 ± 24 µM.
Compound `O=C(O)c1cc(S(=O)(=O)Nc2ccc(Cl)cc2)c2ccccc2c1O` [Compound 3v, 4-(N-(4-Chlorophenyl)sulfamoyl)-1-hydroxy-2-naphthoic Acid] has a Ki of 1.91 ± 0.26 µM.
`Cc1cc(Oc2ccc(S(=O)(=O)N3CCCc4cc(C(=O)O)ccc43)cc2)cc(C)c1Cl` [LC-3-012, 1-((4-(4-chloro-3,5-dimethylphenoxy)phenyl)sulfonyl)-1,2,3,4-tetrahydroquinoline-6-carboxylic acid] showed a Ki of 0.332 µM.
Work on `O=C(O)C1Cc2ccccc2N(S(=O)(=O)c2ccc(-c3ccccc3)cc2)C1` (racemic) [±-8d] yielded a Ki greater than 500 µM.
In the case of `CN(C)S(=O)(=O)c1cc(C(=O)O)c(O)c2ccccc12` [Compound 3h, 4-(N,N-Dimethylsulfamoyl)-1-hydroxy-2-naphthoic Acid], the Ki is reported as 25.7 ± 4.86 µM.
With `Cc1cc(Oc2ccc(S(=O)(=O)N(CC(C)C)c3ccc(C(=O)O)cc3)cc2)cc(C)c1Cl` [LC-3-035 8e] the Ki was 2.06 ± 0.118 µM.
`Cc1ccc(S(=O)(=O)N(CC(C)C)c2cccc(C(=O)O)c2)cc1` [4jc177-2 18ae] was tested, and the Ki was 155 ± 14.7 µM.
With `COc1c(C(=O)O)cc(S(=O)(=O)N(CC(C)C)c2ccc(Br)cc2)c2ccccc12` [Compound 3cd, 4-(N-(4-Bromophenyl)-N-isobutylsulfamoyl)-1-methoxy-2-naphthoic Acid] the Ki was 23.4 ± 2.6 µM.
`O=C(O)c1cc(S(=O)(=O)Nc2cccc(-c3ccccc3)c2)c2ccccc2c1O` [Compound 3s, 4-(N-([1,1′-Biphenyl]-3-yl)sulfamoyl)-1-hydroxy-2-naphthoic Acid] gave a Ki of 1.88 ± 0.62 µM.
With `NS(=O)(=O)c1cc(C(=O)O)c(O)c2ccccc12` [Compound 3b, 1-Hydroxy-4-sulfamoyl-2-naphthoic Acid] the Ki was 99 µM.
`CC(C)CN(c1ccc(C#N)c(O)c1)S(=O)(=O)c1ccc(Oc2ccccc2)cc1` [LC-5-050 23] gave a Ki greater than 500 µM.
In the case of `Cc1ccc(NS(=O)(=O)c2cc(C(=O)O)c(O)c3ccccc23)cc1` [Compound 3x, 1-Hydroxy-4-(N-(p-tolyl)sulfamoyl)-2-naphthoic Acid], the Ki is reported as 34.3 ± 1 µM.
In the case of `CC(C)CN(c1cccc(C(=O)O)c1)S(=O)(=O)c1ccc2ccccc2c1` [4jc177-3 18ab], the Ki is reported as 61.7 ± 4.73 µM.
With `CC(C)CN(c1cccc(C(=O)O)c1)S(=O)(=O)c1ccccc1` [4jc177-1 18aa] the Ki was greater than 500 µM.
With `O=C(O)c1ccc2c(c1)CCCN2S(=O)(=O)c1ccc(Br)cc1` [LC-3-004, 1-((4-bromophenyl)sulfonyl)-1,2,3,4-tetrahydroquinoline-6-carboxylic acid] the Ki was 203 µM.
`CC(C)CN(c1ccc(-c2cc(=O)[nH]o2)cc1)S(=O)(=O)c1ccc(Oc2ccccc2)cc1` [LC-5-069Toptop 26] gave a Ki greater than 500 µM.
With `COC(=O)C1Cc2ccccc2N(S(=O)(=O)c2ccc(Oc3cc(C)c(Cl)c(C)c3)cc2)C1` (racemic) [±-9] the Ki was greater than 500 µM.
Compound `CC(C)CN(c1ccc(C(=O)O)c(O)c1)S(=O)(=O)c1ccc(Oc2ccc(Cl)cc2Cl)cc1` [LC-4-111 13aj] has a Ki of 2.74 ± 0.258 µM.
With `CC(=O)OCOC(=O)c1ccc(N(CC(C)C)S(=O)(=O)c2ccc(Oc3ccccc3)cc2)cc1O` [LC-4-141 22] the Ki was greater than 500 µM.
With `O=C(O)c1cc(S(=O)(=O)N2CCN(Cc3ccccc3)CC2)c2ccccc2c1O` [Compound 3k, 4-((4-Benzylpiperazin-1-yl)sulfonyl)-1-hydroxy-2-naphthoic Acid] the Ki was 3.41 ± 0.37 µM.
For `COc1cc(N(CC(C)C)S(=O)(=O)c2ccc(Oc3ccccc3)cc2)ccc1C(=O)O` [LC-5-106 19], the Ki was 107 ± 31.1 µM.
In the case of `N#Cc1ccc(NS(=O)(=O)c2cc(C(=O)O)c(O)c3ccccc23)cc1` [Compound 3ab, 4-(N-(4-Cyanophenyl)sulfamoyl)-1-hydroxy-2-naphthoic Acid], the Ki is reported as 22.2 ± 1.6 µM.

Same assay, conditions: fluorescence polarization competition assay; read-out: Ki (μM) Mcl-1
With `CC(C)CN(c1ccc(C(=O)O)c(O)c1)S(=O)(=O)c1ccc(-c2ccccc2)cc1` [Compound 4jc117-4, 2-hydroxy-4-(N-isobutyl-[1,1′-biphenyl]-4-ylsulfonamido)benzoic acid] the Ki was 7.87 ± 0.263 µM.
`Cc1cc(Oc2ccc(S(=O)(=O)N(CC(C)C)c3ccc(C(=O)O)cc3)cc2)cc(C)c1Cl` [LC-3-035, 4-(4-(4-chloro-3,5-dimethylphenoxy)-N-isobutylphenylsulfonamido)benzoic acid] was tested, and the Ki was 0.261 ± 0.558 µM.

Same assay, conditions: read-out: Mcl-1 Ki
In the case of `O=C(O)C1Cc2ccccc2N(S(=O)(=O)c2ccc(F)cc2)C1` (racemic) [SF-5-136, (±)-1-((4-fluorophenyl)sulfonyl)-1,2,3,4-tetrahydroquinoline-3-carboxylic acid], the Ki is reported as greater than 1000 µM.
Compound `O=C(O)C1Cc2ccccc2N(S(=O)(=O)c2ccc(Br)cc2)C1` (racemic) [SF-5-135, (±)-1-((4-bromophenyl)sulfonyl)-1,2,3,4-tetrahydroquinoline-3-carboxylic acid] has a Ki greater than 1000 µM.

Same assay, conditions: ΔG=−RTlnKi from experimental Ki
With `Cc1ccc(NS(=O)(=O)c2cc(C(=O)O)c(O)c3ccccc23)cc1` [3x; 5JC74-1] the “Mcl-1 Exp ΔG” value was -6.09 kcal/mol.
With `CC(C)CN(c1ccc(Br)cc1)S(=O)(=O)c1cc(C(=O)O)c(O)c2ccccc12` [Compound 3ca, 4-(N-(4-Bromophenyl)-N-isobutylsulfamoyl)-1-hydroxy-2-naphthoic Acid] the “Mcl-1 Exp ΔG” value was -8.52 kcal/mol.
With `O=C(O)c1cc(S(=O)(=O)Nc2ccccc2)c2ccccc2c1O` [3l; SF-5-311] the “Mcl-1 Exp ΔG” value was -5.42 kcal/mol.
With `O=C(O)c1cc(S(=O)(=O)NCc2cccc(Cl)c2)c2ccccc2c1O` [3e; 5JC71] the “Mcl-1 Exp ΔG” value was -7.22 kcal/mol.
With `O=C(O)c1cc(S(=O)(=O)Nc2cccc(-c3ccccc3)c2)c2ccccc2c1O` [3s; LC-3-192] the “Mcl-1 Exp ΔG” value was -7.81 kcal/mol.
In the case of `O=C(O)c1cc(S(=O)(=O)N2CCN(Cc3ccccc3)CC2)c2ccccc2c1O` [3k; SF-5-307], the “Mcl-1 Exp ΔG” value is reported as -7.45 kcal/mol.
With `COc1c(C(=O)O)cc(S(=O)(=O)N(CC(C)C)c2ccc(Br)cc2)c2ccccc12` [Compound 3cd, 4-(N-(4-Bromophenyl)-N-isobutylsulfamoyl)-1-methoxy-2-naphthoic Acid] the “Mcl-1 Exp ΔG” value was -6.31 kcal/mol.
With `O=C(O)c1cc(S(=O)(=O)Nc2ccccc2Br)c2ccccc2c1O` [3m; TA-1-019] the “Mcl-1 Exp ΔG” value was -7.04 kcal/mol.
For `O=C(O)c1cc(S(=O)(=O)Nc2ccc(Oc3ccccc3)cc2)c2ccccc2c1O` [3bb; SF-5-299], the “Mcl-1 Exp ΔG” value was -8.10 kcal/mol.
For `O=C(O)c1cc(S(=O)(=O)N2CCN(c3ccccc3)CC2)c2ccccc2c1O` [3j; EW-2-051], the “Mcl-1 Exp ΔG” value was -7.29 kcal/mol.
`N#Cc1ccc(NS(=O)(=O)c2cc(C(=O)O)c(O)c3ccccc23)cc1` [3ab; TA-1-018] was tested, and the “Mcl-1 Exp ΔG” value was -6.35 kcal/mol.
`O=C(O)c1cc(S(=O)(=O)N2CCCCC2)c2ccccc2c1O` [3i; SF-5-263] was tested, and the “Mcl-1 Exp ΔG” value was -7.54 kcal/mol.
For `N#Cc1cccc(NS(=O)(=O)c2cc(C(=O)O)c(O)c3ccccc23)c1` [3ad; 5JC75-2], the “Mcl-1 Exp ΔG” value was -6.23 kcal/mol.
